From patent US11566007B2, “Ras inhibitors” (Revolution Medicines, Inc., priority 2019, dated 2023)

Tests used:
[1] = system: NCI-H358 cells (K-Ras G12C); test: Potency assay: pERK in NCI-H358 cells; type: cell-based, human; conditions: Homo sapiens, NCI-H358; H358 KRAS G12C; read-out: pERK EC50
Procedure, shortened: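 4 h cpd, 37 °C; 10-pt 3-fold series, 10 mM DMSO top stock, duplicates. Readout pERK: AlphaLISA SureFire Ultra or In-Cell Western (IR-800CW secondary, DRAQ5 DNA stain). IC50, 4-PL fit vs log conc.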

[2] = biological target: NRAS Q61K (Homo sapiens (Human), UniProt P01111+P62937, Q61K); test: Ras-Raf (BRAF RBD) disruption / FRET / MOA assay, NRAS Q61K; type: biochemical; conditions: NRAS Q61K; Ras-Raf disruption/FRET/MOA assay; read-out: IC50* NRAS Q61K FRET data
Procedure, shortened: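 Compounds were tested as a 10-point 3-fold dilution series from 30 μM final for their ability to drive ternary complex formation between nucleotide-loaded Ras and cyclophilin A, displacing the BRAF RBD. After 3 h at 25° C., anti-His Eu-W1024 (10 nM) and anti-GST allophycocyanin (50 nM) were added for 1.5 h. A TR-FRET ratio decrease versus DMSO gave IC50.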

NRAS Q61K, sequence (P01111 whole entry Q61K): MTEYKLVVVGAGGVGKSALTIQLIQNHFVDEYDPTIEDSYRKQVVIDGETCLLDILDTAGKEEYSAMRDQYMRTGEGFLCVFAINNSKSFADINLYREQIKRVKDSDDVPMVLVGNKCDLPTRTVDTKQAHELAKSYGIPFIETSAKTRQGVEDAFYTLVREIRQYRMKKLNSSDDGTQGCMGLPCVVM
NRAS Q61K, sequence (P62937 whole entry): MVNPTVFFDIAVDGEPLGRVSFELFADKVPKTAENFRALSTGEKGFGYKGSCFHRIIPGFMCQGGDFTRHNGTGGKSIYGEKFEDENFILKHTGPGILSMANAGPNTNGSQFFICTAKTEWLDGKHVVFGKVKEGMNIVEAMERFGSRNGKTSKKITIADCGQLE

SMILES | EC50 [1] [µM] | IC50 [2] [nM]
CCn1c(-c2cccnc2[C@H](C)OC)c2c3cc(ccc31)N1CCC[C@@H](C[C@H](NC(=O)[C@@H](COC3CN(C(=O)C#CC(C)(C)N(C)C)C3)C(C)C)C(=O)N3CCC[C@H](N3)C(=O)OCC(C)(C)C2)C1 (atropisomer, axis not shown) [Example A715, (2R)-2-(((1-(4-(dimethylamino)-4-methylpent-2-ynoyl)azetidin-3-yl)oxy)methyl)-N-((2^3S,6^3S,4S)-1^1-ethyl-1^2-(2-((S)-1-methoxyethyl)pyridin-3-yl)-10,10-dimethyl-5,7-dioxo-6^1,6^2,6^3,6^4,6^5,6^6-hexahydro-1^1H-8-oxa-1(5,3)-indola-6(1,3)-pyridazina-2(1,3)-piperidinacycloundecaphane-4-yl)-3-methylbutanamide] | < 5 | > 10000
C=CC(=O)N1CCN(C(=O)N(C)[C@H](C(=O)N[C@H]2Cc3nc(cs3)-c3ccc4c(c3)c(c(-c3cccnc3[C@H](C)OC)n4CC)CC(C)(C)COC(=O)[C@@H]3CCCN(N3)C2=O)C(C)C)[C@@H]2CC[C@@H]21 (atropisomer, axis not shown) [Example A718] | < 5 | 10 to 100
C=CC(=O)N1CC[C@]2(CCN(C(=O)N(C)[C@H](C(=O)N[C@H]3Cc4nc(cs4)-c4ccc5c(c4)c(c(-c4cccnc4[C@H](C)OC)n5CC)CC(C)(C)COC(=O)[C@@H]4CCCN(N4)C3=O)C(C)C)C2)C1 (atropisomer, axis not shown) [Example A719] | < 5 | 10 to 100
C=CC(=O)N1CC(OC[C@H](C(=O)N[C@H]2Cc3cc(F)cc(c3)-c3ccc4c(c3)c(c(-c3cccnc3[C@H](C)OC)n4CC(F)(F)F)CC(C)(C)COC(=O)[C@@H]3CCCN(N3)C2=O)C(C)C)C1 (atropisomer, axis not shown) [Example A725] | < 5 | 1000 to 10000
C=CC(=O)N1CC[C@H](N(C)C(=O)N(C)[C@H](C(=O)N[C@H]2Cc3nc(cs3)-c3ccc4c(c3)c(c(-c3cccnc3[C@H](C)OC)n4CC)CC(C)(C)COC(=O)[C@@H]3CCCN(N3)C2=O)C(C)C)C1 (atropisomer, axis not shown) [Example A728] | < 5 | 100 to 1000
C=CC(=O)N1CCN(C(=O)N(C)[C@H](C(=O)N[C@H]2Cc3nc(cs3)-c3ccc4c(c3)c(c(-c3cccnc3[C@H](C)OC)n4CC)CC(C)(C)COC(=O)[C@@H]3CCCN(N3)C2=O)C(C)C)[C@H]2CC[C@H]21 (atropisomer, axis not shown) [Example A734] | < 5 | 10 to 100
C=CC(=O)N1CC2(C1)OCCCN2C(=O)N(C)[C@H](C(=O)N[C@H]1Cc2nc(cs2)-c2ccc3c(c2)c(c(-c2cccnc2[C@H](C)OC)n3CC)CC(C)(C)COC(=O)[C@@H]2CCCN(N2)C1=O)C(C)C (atropisomer, axis not shown) [Example A735, 2-acryloyl-N-((2S)-1-(((6^3S,4S,Z)-1^1-ethyl-1^2-(2-((S)-1-methoxyethyl)pyridin-3-yl)-10,10-dimethyl-5,7-dioxo-6^1,6^2,6^3,6^4,6^5,6^6-hexahydro-1^1H-8-oxa-2(4,2)-thiazola-1(5,3)-indola-6(1,3)-pyridazinacycloundecaphane-4-yl)amino)-3-methyl-1-oxobutan-2-yl)-N-methyl-5-oxa-2,9-diazaspiro[3.5]nonane-9-carboxamide] | < 5 | 1000 to 10000
C=CC(=O)N(C)[C@@H]1C[C@H]1N(C)C(=O)N(C)[C@H](C(=O)N[C@H]1Cc2nc(cs2)-c2ccc3c(c2)c(c(-c2cccnc2[C@H](C)OC)n3CC)CC(C)(C)COC(=O)[C@@H]2CCCN(N2)C1=O)C(C)C (atropisomer, axis not shown) [Example A739] | < 5 | 10 to 100
C=CC(=O)N1CC[C@H](C(=O)N(C)[C@H](C(=O)N[C@H]2Cc3cccc(c3)-c3ccc4c(c3)c(c(-c3cnccc3[C@H](C)OC)n4CC)CC(C)(C)COC(=O)[C@@H]3CCCN(N3)C2=O)C(C)C)C1 (single isomer, unassigned) [Example A115] | < 5 | 1000 to 10000
C=CC(=O)N1CC[C@H](C(=O)N(C)[C@H](C(=O)N[C@H]2Cc3cc(O)cc(c3)-c3ccc4c(c3)c(c(-c3cc(N5CC(OC)C5)ccn3)n4CC)CC(C)(C)COC(=O)[C@@H]3CCCN(N3)C2=O)C(C)C)C1 [Example A104] | < 5 | 1000 to 10000
C=CC(=O)N1CC[C@H](C(=O)N(C)[C@H](C(=O)N[C@H]2Cc3cc(O)cc(c3)-c3ccc4c(c3)c(c(-c3cc(C#N)cnc3COC)n4CC)CC(C)(C)COC(=O)[C@@H]3CCCN(N3)C2=O)C(C)C)C1 [Example A105] | < 5 | 100 to 1000
C=CC(=O)N1CC[C@H](C(=O)N(C)[C@H](C(=O)N[C@H]2Cc3cc(O)cc(c3)-c3ccc4c(c3)c(c(-c3cn(C)cn3)n4CC)CC(C)(C)COC(=O)[C@@H]3CCCN(N3)C2=O)C(C)C)C1 [Example A113] | < 5 | > 10000
C=CS(=O)(=O)N1CC[C@H](C(=O)N(C)[C@H](C(=O)N[C@H]2Cc3cc(O)cc(c3)-c3ccc4c(c3)c(c(-c3cncnc3)n4CC)CC(C)(C)COC(=O)[C@@H]3CCCN(N3)C2=O)C(C)C)C1 [Example A172] | < 5 | 1000 to 10000
CCn1c(-c2cccnc2[C@H](C)OC)c2c3cc(ccc31)-c1cccc(c1)C[C@H](NC(=O)[C@H](C(C)C)N1CC[C@@]3(CCN(C(=O)C#C[C@@H]4COCCN4C4COC4)C3)C1=O)C(=O)N1CCC[C@H](N1)C(=O)OCC(C)(C)C2 [Example A566] | < 5 | 1000 to 10000
C=CC(=O)N1CCC2(C1)CN(C(=O)N(C)[C@H](C(=O)N[C@H]1Cc3nc(cs3)-c3ccc4c(c3)c(c(-c3cccnc3[C@H](C)OC)n4CC(F)(F)F)CC(C)(C)COC(=O)[C@@H]3CCCN(N3)C1=O)C(C)C)C2 [Example A603] | < 5 | 10 to 100
CCn1c(-c2cccnc2[C@H](C)OC)c2c3cc(ccc31)-c1cccc(c1)C[C@H](NC(=O)[C@H](C(C)C)N(C)C(=O)N1CCC13CN(C(=O)C#CC(C)(C)N(C)C)C3)C(=O)N1CCC[C@H](N1)C(=O)OCC(C)(C)C2 [Example A672] | < 5 | 100 to 1000
C=CC(=O)N(C)[C@H]1CC1N(C)C(=O)N(C)[C@H](C(=O)N[C@H]1Cc2nc(cs2)-c2ccc3c(c2)c(c(-c2cccnc2[C@H](C)OC)n3CC)CC(C)(C)COC(=O)[C@@H]2CCCN(N2)C1=O)C(C)C (stereo partly shown) [Example A738] | < 5 | 100 to 1000
